EP0084597A1, “Triazole and imidazole derivatives and pharmaceutical preparations containing them” (BAYER AG, priority 1981, dated 1983)
Values after ≈ are worked out from the molar mass of the structure shown.

How the values were obtained:
Candida albicans = test: Antimycotic in-vitro activity, serial dilution test (MIC); assay type: cell-based; settings: meat extract-glucose broth, 20°C, 24 to 96 hours, inoculum 5 x 10^4 germs/ml; for MIC: Candida albicans, read-out: MHK-Werte in γ/ml Nährmedium, Candida albicans
Description: (§1) Die in-vitro-Prüfungen wurden im Reihenverdünnungstest mit Keiminokula von durchschnittlich 5 x 10^4 Keimen/ml Substrat durchgeführt. Als Nährmedium dienten • a) für Dermatophyten und Schimmelpilze: Sabourand's milieu d'epreuve • b) für Hefen: Fleischextrakt-Traubenzucker-Bouillon.
(§2) Die Bebrütungstemperatur betrug 20°C, die Bebrütungsdauer lag bei 24 bis 96 Stunden bei Hefen und 96 Stunden bei Dermatophyten und Schimmelpilzen.

Microsporum canis = test: as above; assay type: cell-based; settings: Sabouraud medium, 20°C, inoculum 5 x 10^4 germs/ml; for MIC: Microsporum canis, 96 h, read-out: MHK-Werte in γ/ml Nährmedium, Microsporum canis
Description: as §1, §2

Torulopsis glabrata = test: as above; assay type: cell-based; settings: meat extract-glucose broth, 20°C, 24 to 96 hours, inoculum 5 x 10^4 germs/ml; for MIC: Nakaseomyces glabratus, read-out: MHK-Werte in γ/ml Nährmedium, Torulopsis glabrata
Description: as §1, §2

[1] = tested on: Dermatophyten und Schimmelpilze, Hefen; test: Antimycotic in-vitro activity, serial dilution test, overall comparison with known compounds; assay type: cell-based; settings: compared with known compounds (A),(B),(C) and (D)
Description: as §1, §2

Trichophyton mentagr. = test: Antimycotic in-vitro activity, serial dilution test (MIC); assay type: cell-based, Trichophyton mentagrophytes; settings: Sabouraud medium, 20°C, 96 hours, inoculum 5 x 10^4 germs/ml; for MIC: Trichophyton, read-out: MHK-Werte in γ/ml Nährmedium, Trichophyton mentagr.
Description: as §1, §2

Aspergillus fumig. = test: as above; assay type: cell-based, Aspergillus fumigatus; settings: Sabouraud medium, 20°C, inoculum 5 x 10^4 germs/ml; for MIC: Aspergillus, 96 h, read-out: MHK-Werte in γ/ml Nährmedium, Aspergillus fumig.
Description: as §1, §2

Candida-Zellen = test: Antimycotic in-vivo activity (oral) in mouse candidosis; parameters: species or system Mäuse vom Typ SPF-CF1; key: +++++: sehr gute Wirkung = 90 % Ueberlebende am 6.Tag p.i.; ++++: gute Wirkung = 80 % Ueberlebende am 6.Tag p.i.; +++: Wirkung = 60 % Ueberlebende am 6.Tag p.i.; ++: schwache Wirkung = 40 % Ueberlebende am 6.Tag p.i.; +: Spur Wirkung; k.W.: keine Wirkung
Description: Mäuse vom Typ SPF-CF1 wurden intravenös mit 1 - 2 x 10^6 logarithmisch wachsenden Candida-Zellen, die in physiologischer Kochsalzlösung suspendiert werden, infiziert. Eine Stunde vor und sieben Stunden nach der Infektion werden die Tiere mit jeweils 50 - 100 mg/kg Körpergewicht der Präparate oral behandelt.
Uhbehandelte Tiere starben 3 bis 6 Tage post infektionem. Die Ueberlebensrate am 6.Tag post infektionem betrug bei uhbehandelten Kontrolltieren etwa 5 %.
• +++++ = sehr gute Wirkung = 90 % Ueberlebende am 6.Tag p.i. • ++++ = gute Wirkung = 80 % Ueberlebende am 6.Tag p.i. • +++ = Wirkung = 60 % Ueberlebende am 6.Tag p.i. • ++ = schwache Wirkung = 40 % Ueberlebende am 6.Tag p.i. • + = Spur Wirkung = k.W. = keine Wirkung

[2] = mice infected i.v. with 1 - 2 x 10^6 Candida cells, oral 50 - 100 mg/kg one hour before and seven hours after infection, survivors on day 6 p.i.
[3] = mouse candidosis, oral, compared with known compounds (A), (B), (C) and (D)

**Q.** How did the MIC (Candida albicans) turn out when `CCCCC(C(=O)c1ccc(Oc2ccc(Cl)cc2)cc1)n1ccnc1` (stereo not shown) [Beispiel 27] was run?
**A.** < 1 µg/mL

**Q.** What about the MIC (Microsporum canis) of the same compound?
**A.** < 1 µg/mL

**Q.** What about the MIC (Torulopsis glabrata) of the same compound?
**A.** < 1 µg/mL

**Q.** And the “antimykotische Wirkung” value [1]?
**A.** bessere antimykotische Wirkung

**Q.** And the MIC (Trichophyton mentagr.)?
**A.** < 1 µg/mL

**Q.** And the MIC (Aspergillus fumig.)?
**A.** < 1 µg/mL

**Q.** With `CCCC=CC(C(O)c1ccc(Oc2ccc(Cl)cc2)cc1)n1cncn1` (stereo not shown) [Beispiel 38] as the compound, how does the MIC (Candida albicans) read?
**A.** 8 µg/mL (≈ 20.8 µM)

**Q.** And the MIC (Microsporum canis)?
**A.** 8 µg/mL (≈ 20.8 µM)

**Q.** What about the MIC (Torulopsis glabrata) of the same compound?
**A.** 64 µg/mL (≈ 167 µM)

**Q.** And the “antimykotische Wirkung” value [1]?
**A.** bessere antimykotische Wirkung

**Q.** And the MIC (Trichophyton mentagr.)?
**A.** < 1 µg/mL

**Q.** And the MIC (Aspergillus fumig.)?
**A.** 32 µg/mL (≈ 83.4 µM)

**Q.** Which results are given for `CC(C(=O)c1ccc(Oc2ccc(Cl)cc2)cc1)n1ccnc1` (stereo not shown) [Beispiel 26]?
**A.** MIC (Candida albicans): 4 µg/mL (≈ 12.2 µM); MIC (Torulopsis glabrata): 16 µg/mL (≈ 49 µM); antimykotische Wirkung [1]: bessere antimykotische Wirkung; Wirkung (Candida-Zellen; [2]): +; Wirkung (Candida-Zellen; [3]): bessere Wirkung; MIC (Trichophyton mentagr.): 8 µg/mL (≈ 24.5 µM); MIC (Aspergillus fumig.): 16 µg/mL (≈ 49 µM)

**Q.** Which results are given for `CC=CCC(C(O)c1ccc(Oc2ccc(Cl)cc2)cc1)n1cncn1` (stereo not shown) [Beispiel 37]?
**A.** MIC (Candida albicans): < 1 µg/mL; MIC (Microsporum canis): 4 µg/mL (≈ 10.8 µM); MIC (Torulopsis glabrata): 2 µg/mL (≈ 5.41 µM); antimykotische Wirkung [1]: bessere antimykotische Wirkung; MIC (Trichophyton mentagr.): 4 µg/mL (≈ 10.8 µM); MIC (Aspergillus fumig.): 32 µg/mL (≈ 86.5 µM)

**Q.** Which results are given for `CC(C)C(C(=O)c1ccc(Oc2ccc(Cl)cc2)cc1)n1ccnc1` (stereo not shown) [Beispiel 28]?
**A.** MIC (Candida albicans): < 1 µg/mL; MIC (Microsporum canis): 2 µg/mL (≈ 5.64 µM); MIC (Torulopsis glabrata): 2 µg/mL (≈ 5.64 µM); antimykotische Wirkung [1]: bessere antimykotische Wirkung; MIC (Trichophyton mentagr.): < 1 µg/mL; MIC (Aspergillus fumig.): < 1 µg/mL

**Q.** Which MIC (Candida albicans) does the source give for `CC(C)C(C(O)c1ccc(Oc2ccc(Cl)cc2)cc1)n1ccnc1` (stereo not shown) [Beispiel 73] here?
**A.** 4 µg/mL (≈ 11.2 µM)

**Q.** What about the MIC (Microsporum canis) of the same compound?
**A.** 16 µg/mL (≈ 44.8 µM)

**Q.** And the MIC (Torulopsis glabrata)?
**A.** 2 µg/mL (≈ 5.6 µM)

**Q.** And the “antimykotische Wirkung” value [1]?
**A.** bessere antimykotische Wirkung

**Q.** What about the MIC (Trichophyton mentagr.) of the same compound?
**A.** 4 µg/mL (≈ 11.2 µM)

**Q.** What about the MIC (Aspergillus fumig.) of the same compound?
**A.** 64 µg/mL (≈ 179 µM)

**Q.** `CCCC(C(O)c1ccc(Oc2ccccc2)cc1)n1ccnc1` (stereo not shown) [Beispiel 68] was tested. Which MIC (Candida albicans) did it give?
**A.** < 1 µg/mL

**Q.** And the MIC (Microsporum canis)?
**A.** 16 µg/mL (≈ 49.6 µM)

**Q.** And the MIC (Torulopsis glabrata)?
**A.** 32 µg/mL (≈ 99.3 µM)

**Q.** And the “antimykotische Wirkung” value [1]?
**A.** bessere antimykotische Wirkung

**Q.** And the MIC (Trichophyton mentagr.)?
**A.** 4 µg/mL (≈ 12.4 µM)

**Q.** And the MIC (Aspergillus fumig.)?
**A.** 32 µg/mL (≈ 99.3 µM)

**Q.** Which MIC (Candida albicans) does the source give for `CCCCCCCC(C(O)c1ccc(Oc2ccc(Cl)cc2)cc1)n1cncn1` (stereo not shown) [Beispiel 36] here?
**A.** 4 µg/mL (≈ 9.66 µM)

**Q.** What about the MIC (Microsporum canis) of the same compound?
**A.** 32 µg/mL (≈ 77.3 µM)

**Q.** What about the MIC (Torulopsis glabrata) of the same compound?
**A.** 16 µg/mL (≈ 38.7 µM)

**Q.** What about the “antimykotische Wirkung” value [1] of the same compound?
**A.** bessere antimykotische Wirkung

**Q.** What about the MIC (Trichophyton mentagr.) of the same compound?
**A.** < 1 µg/mL

**Q.** What about the MIC (Aspergillus fumig.) of the same compound?
**A.** 64 µg/mL (≈ 155 µM)

**Q.** `CCCCC(C(O)c1ccc(Oc2ccc(Cl)cc2)cc1)n1cncn1` (single isomer, unassigned) [Beispiel 34] was tested. Which “MHK-Werte in γ/ml Nährmedium, Candida albicans” value (Candida albicans) did it give?
**A.** <1 µg/mL

**Q.** What about the “MHK-Werte in γ/ml Nährmedium, Microsporum canis” value (Microsporum canis; 96 hours) of the same compound?
**A.** 32 µg/mL

**Q.** And the “MHK-Werte in γ/ml Nährmedium, Torulopsis glabrata” value (Torulopsis glabrata)?
**A.** >64 µg/mL

**Q.** What about the “antimykotische Wirkung” value [1] of the same compound?
**A.** bessere antimykotische Wirkung

**Q.** And the “MHK-Werte in γ/ml Nährmedium, Trichophyton mentagr.” value (Trichophyton mentagr.)?
**A.** <1 µg/mL

**Q.** What about the “MHK-Werte in γ/ml Nährmedium, Aspergillus fumig.” value (Aspergillus fumig.; 96 hours) of the same compound?
**A.** 32 µg/mL

**Q.** With `CC(C(=O)c1ccc(Oc2ccc(Cl)cc2)cc1)n1cncn1` (stereo not shown) [Beispiel 9] as the compound, how does the MIC (Candida albicans) read?
**A.** 8 µg/mL (≈ 24.4 µM)

**Q.** What about the MIC (Microsporum canis) of the same compound?
**A.** 4 µg/mL (≈ 12.2 µM)

**Q.** What about the MIC (Torulopsis glabrata) of the same compound?
**A.** 16 µg/mL (≈ 48.8 µM)

**Q.** And the “antimykotische Wirkung” value [1]?
**A.** bessere antimykotische Wirkung

**Q.** And the Wirkung (Candida-Zellen; [2])?
**A.** +++ (Wirkung = 60 % Ueberlebende am 6.Tag p.i.)

**Q.** And the Wirkung (Candida-Zellen; [3])?
**A.** bessere Wirkung

**Q.** And the MIC (Trichophyton mentagr.)?
**A.** 2 µg/mL (≈ 6.1 µM)

**Q.** What about the MIC (Aspergillus fumig.) of the same compound?
**A.** 8 µg/mL (≈ 24.4 µM)

**Q.** Which MIC (Candida albicans) does the source give for `OC(Cn1cncn1)c1ccc(-c2ccc(Cl)cc2)cc1` (stereo not shown) [(D), reference compound] here?
**A.** > 64 µg/mL

**Q.** And the MIC (Microsporum canis)?
**A.** > 64 µg/mL

**Q.** What about the Wirkung (Candida-Zellen; [2]) of the same compound?
**A.** k.W.

**Q.** And the MIC (Trichophyton mentagr.)?
**A.** 4 µg/mL (≈ 13.3 µM)

**Q.** And the MIC (Aspergillus fumig.)?
**A.** > 64 µg/mL

**Q.** With `CCCC(C(O)c1ccc(Oc2ccc(Cl)cc2Cl)cc1)n1cncn1` (stereo not shown) [Beispiel 40] as the compound, how does the MIC (Candida albicans) read?
**A.** < 1 µg/mL

**Q.** What about the MIC (Microsporum canis) of the same compound?
**A.** 8 µg/mL (≈ 20.4 µM)

**Q.** What about the MIC (Torulopsis glabrata) of the same compound?
**A.** < 1 µg/mL

**Q.** And the “antimykotische Wirkung” value [1]?
**A.** bessere antimykotische Wirkung

**Q.** And the MIC (Trichophyton mentagr.)?
**A.** < 1 µg/mL

**Q.** And the MIC (Aspergillus fumig.)?
**A.** > 64 µg/mL

**Q.** What does the source list for `O=C(Cn1cncn1)c1ccc(-c2ccccc2)cc1` [(B), reference compound]?
**A.** MIC (Candida albicans): > 64 µg/mL; MIC (Microsporum canis): > 64 µg/mL; Wirkung (Candida-Zellen; [2]): k.W.; MIC (Trichophyton mentagr.): 4 µg/mL (≈ 15.2 µM); MIC (Aspergillus fumig.): > 64 µg/mL

**Q.** Which results are given for `CCCCC(C(O)c1ccc(Oc2ccc(Cl)cc2)cc1)n1ccnc1` (stereo not shown) [Beispiel 72]?
**A.** MIC (Candida albicans): < 1 µg/mL; MIC (Microsporum canis): 8 µg/mL (≈ 21.6 µM); MIC (Torulopsis glabrata): 2 µg/mL (≈ 5.39 µM); antimykotische Wirkung [1]: bessere antimykotische Wirkung; MIC (Trichophyton mentagr.): < 1 µg/mL; MIC (Aspergillus fumig.): 32 µg/mL (≈ 86.3 µM)
